Experimental data published in ChEMBL document CHEMBL1135698, “Synthesis, antitumor activity, molecular modeling, and DNA binding properties of a new series of imidazonaphthalimides” (J Med Chem, 2002).

Columns and labels:
Type in all cases: functional, cell-based
[1] = test system: HT-29; test: In vitro concentration required to reduce cell number to 50% in human colon carcinoma (HT-29) culture
[2] = test system: HeLa; test: In vitro concentration required to reduce cell number to 50% in human cervical carcinoma (HeLa) culture
[3] = test system: PC-3; test: In vitro concentration required to reduce cell number to 50% in human postrate carcinoma (PC-3) culture

Row | SMILES | IC50 [1] | IC50 [2] | IC50 [3]
1 | Cc1nc2cc3c4c(cccc4c2[nH]1)C(=O)N(CCN(C)CCCN(C)CCN1C(=O)c2cccc4c2c(cc2nc(C)[nH]c24)C1=O)C3=O | 0.32 µM | 0.8 µM | 3.22 µM
2 | Cc1nc2c(cc3c4c(cccc42)C(=O)N(CCN2CCCC2)C3=O)[nH]1 | 3.11 µM | 6.09 µM | 4.22 µM
3 | Cc1nc2cc3c4c(cccc4c2[nH]1)C(=O)N(CCN(C)C)C3=O | 0.94 µM | 2.35 µM | 10.4 µM
4 | Cc1nc2cc3c4c(cccc4c2[nH]1)C(=O)N(CCN(C)CCN1C(=O)c2cccc4c2c(cc2nc(C)[nH]c24)C1=O)C3=O | 17.5 µM | 4.45 µM | > 100 µM
5 | Cc1nc2cc3c4c(cccc4c2[nH]1)C(=O)N(CCN(C)CCN(C)CCN1C(=O)c2cccc4c2c(cc2nc(C)[nH]c24)C1=O)C3=O | 3.83 µM | 8.62 µM | > 100 µM
6 | CN(C)CCN1C(=O)c2cccc3cc(N)cc(c23)C1=O [AMONAFIDE] | 4.67 µM | 2.73 µM | 6.38 µM
7 | O=C1c2cccc3cccc(c23)C(=O)N1CCNCCCNCCN1C(=O)c2cccc3cccc(c23)C1=O [ELINAFIDE] | 0.017 µM | 0.07 µM | 0.32 µM

The next lines start with the values.

Row | IC50 [1] | IC50 [2] | IC50 [3] | SMILES
8 | > 100 µM | > 100 µM | 36.3 µM | Cc1nc2cc3c4c(cccc4c2[nH]1)C(=O)N(CCCN(C)CCCN1C(=O)c2cccc4c2c(cc2nc(C)[nH]c24)C1=O)C3=O
9 | 1.08 µM | 3.49 µM | > 100 µM | Cc1nc2c(cc3c4c(cccc42)C(=O)N(CCNCCNCCN2C(=O)c4cccc5c4c(cc4nc(C)[nH]c45)C2=O)C3=O)[nH]1
10 | 8.5 µM | 8.26 µM | > 100 µM | Cc1nc2c(cc3c4c(cccc42)C(=O)N(CCNCCCNCCN2C(=O)c4cccc5c4c(cc4nc(C)[nH]c45)C2=O)C3=O)[nH]1
11 | 15 µM | 8.75 µM | 744 µM | Cc1nc2c(cc3c4c(cccc42)C(=O)N(CCCNCCNCCCN2C(=O)c4cccc5c4c(cc4nc(C)[nH]c45)C2=O)C3=O)[nH]1
